Data from patent US10350271B2, “Lipidated peptides for lowering blood glucose” (USTAV ORGANICKE CHEMIE A BIOCHEMIE AKADEMIE VED CR, V.V.I., priority 2014, dated 2019).
Marks after values point to notes of the source that are not given here.

How the values were obtained:
Type in all cases: in vivo
C57BL/6 mice = assay: IPGTT after acute administration in lean mice; settings: lean C57BL/6 mice, 5 mg/kg SC, vs saline
Experimental: IPGTT was performed in overnight fasted male C57BL/6 mice.
Intraperitoneal glucose tolerance test (IPGTT) was performed in overnight fasted male C57BL/6 mice (AnLab, Praha, Czech Republic) at age of 12 weeks. […] 15 min later, 2 g/kg glucose solution was administered IP. Blood glucose was then measured at 15, 30, 60, 120 min from glucose injection using a glucometer (Glucocard, Arkray, Kyoto, Japan).
IPGTT was performed in overnight fasted male C57BL/6 mice, Blood glucose levels were measured at the beginning and after subcutaneous (SC—beneath the skin) administration of palm-PrRP31 (5 mg/kg SC) or saline (n=7) at time 30, 60, 90 and 120 min post injection. […] Regarding the error bars in the graphs *P<0.05, **P<0.01. IPGTT glucose levels were lower in mice given analog 43 instead of saline, particularly early in the experiment. Total area under the curve was also clearly lower in analog 43 mice.

Wistar rats [1] = assay: IPGTT after acute administration in lean rats; settings: fasted male Wistar rats, 5 mg/kg, vs saline
Experimental: IPGTT was performed in overnight fasted male Wistar rats.
IPGTT was performed in overnight fasted male Wistar rats (Antab, Praha, Czech Republic) at age of 14 weeks. […] 15 min later, 2 g/kg glucose solution was administered IP. Blood glucose was then measured at 15, 30, 60, and 120 min from glucose injection.
FIG. 4 illustrates a plot of glucose levels after acute administration of palm-PrRP31 in rats. IPGTT was performed in overnight fasted male Wistar rats.

ZDF diabetic rats = assay: 21 days repeated administration in diabetic ZDF rats (food intake, OGTT, metabolic parameters)
Experimental: (§1) Rats were subjected to a 21-day food intake experiment. ZDF rats were IP injected with either phosphate-buffered saline pH6 (control) or compound 43 or 52 at a dose of 1 and 5 mg/kg (n=8), twice a day for 21 days. After 21 days of treatment, rats were fasted overnight and OGTT was performed. After initial blood glucose measurement, 2 g/kg glucose solution was administered by oral gavage. Blood glucose was then measured at 15, 30, 60, 90, 120 and 180 min.
NMRI mice, C57BL/6 mice, and Wistar rats (AnLab, Prague, Czech Republic) were housed in a temperature of 23° C. and a daily cycle of 12 h light and dark (light from 6:00). They were given ad libitum water and a standard chow diet that contained 25, 9 and 66% of calories of protein, fat and carbohydrate respectively. Energy content of the feed was 3.4 kcal/g (St-1, Mlýn Kocanda, Czech Republic). Db/db mice and their controls (C57BL/6 background) were obtained from Taconic (Denmark), housed under the same conditions as described above, and fed by Altromin (Taconic, Denmark). ZDF-Lepr^fa/Crl, diabetic fa/fa male rats were obtained from Charles River (France), housed under same conditions as described above, and fed with a Purina 5008 diet (IPS Product Supplies Limited, UK). All experiments followed the ethical guidelines for animal experiments and the law of the Czech Republic Nr. 246/1992.
The ZDF rats were treated with vehicle or analogs 43 and 52 (1 and 5 mg/kg IP) dissolved in phosphate buffered saline, pH 6, twice daily for 21 days and sacrificed on day 22. Food intake was measured daily up to day 22. Leptin, insulin, cholesterol and HbA1c levels were measured on day 21. Glucose tolerance test (OGTT) was also performed on day 21.
as §1, with “min. […] The statistical significance, denoted by the asterisk (*), was *P<0.05.” for “min.”

Wistar rats [2] = assay: Food intake in fasted rats after SC injection; settings: overnight fasted rats, compared to controls given vehicle
Summary of the method: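 Overnight-fasted animals (food removed 17 h before dosing, water available) in individual cages got saline, PrRP or lipidated PrRP analogs SC at 1-10 mg/kg.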

[3] = system: obese diabetic monosodium-glutamate (MSG) mice; assay: IPGTT after 10 days administration to obese diabetic MSG mice; settings: 5 mg/kg SC twice a day for 10 days, vs saline
Experimental: Mice were subjected to a 10-day food intake experiment. […] After 10 days of treatment, mice were fasted overnight and IPGTT was performed. After initial blood glucose measurement, 2 g/kg glucose solution was administered intraperitoneally (IP).
Obese mice were created using MSG. L-glutamic acid sodium salt hydrate (Sigma, St. Louis, USA) was subcutaneously (SC) administered to newborn male mice, at a dose of 4 mg/g body weight, daily from postnatal days 2 to 8 to induce obesity. The MSG treated mice used for experiments were 24 weeks old. Age related mice were used as controls. Obese and control mice were placed into separate cages with free access to food and water. The following week, mice were subjected to a 10-day food intake experiment. […] Consumption of the St-1 diet and the body weight of the mice were simultaneously followed. After 10 days of treatment, mice were fasted overnight and IPGTT was performed. After initial blood glucose measurement, 2 g/kg glucose solution was administered IP.
Blood glucose was then measured at 15, 30, 60, 120 and 180 min post injection as described above.

[4] = ZDF rats, 1 mg/kg IP twice daily
[5] = ZDF rats, 5 mg/kg IP twice daily
[6] = ZDF rats, day 21, 1 mg/kg IP twice daily
[7] = ZDF rats, day 21, 5 mg/kg IP twice daily

Structure (SMILES): CCCCCCCCCCCCCCCC(=O)N[C@@H](CO)C(=O)N[C@@H](CCCNC(=N)N)C(=O)N[C@H](C(=O)N[C@@H](Cc1c[nH]cn1)C(=O)N[C@@H](CCCNC(=N)N)C(=O)N[C@@H](Cc1c[nH]cn1)C(=O)N[C@@H](CO)C(=O)N[C@@H](CCSC)C(=O)N[C@@H](CCC(=O)O)C(=O)N[C@H](C(=O)N[C@@H](CCCNC(=N)N)C(=O)N[C@H](C(=O)N1CCC[C@H]1C(=O)N[C@@H](CC(=O)O)C(=O)N[C@H](C(=O)N[C@@H](CC(N)=O)C(=O)N1CCC[C@H]1C(=O)N[C@@H](C)C(=O)N[C@@H](Cc1c[nH]c2ccccc12)C(=O)N[C@@H](Cc1ccc(O)cc1)C(=O)N[C@@H](C)C(=O)N[C@@H](CO)C(=O)N[C@@H](CCCNC(=N)N)C(=O)NCC(=O)N[C@H](C(=O)N[C@@H](CCCNC(=N)N)C(=O)N1CCC[C@H]1C(=O)N[C@H](C(=O)NCC(=O)N[C@@H](CCCNC(=N)N)C(=O)N[C@@H](Cc1ccccc1)C(N)=O)C(C)C)[C@@H](C)CC)[C@@H](C)CC)[C@@H](C)O)[C@@H](C)CC)[C@@H](C)O [Analog 43]
- IPGTT glucose levels (C57BL/6 mice): lower
- IPGTT total area under the curve (C57BL/6 mice): clearly lower
- Large spike in blood glucose in IPGTT (Wistar rats [1]): did not
- Food intake in free fed ZDF diabetic rats (ZDF diabetic rats; 5 mg/kg IP twice daily, vs vehicle): significantly lowered
- Cumulative food intake Day 1 (ZDF diabetic rats; [4]): 40.8 ± 2.1 g
- Cumulative food intake Day 1-7 (ZDF diabetic rats; [4]): 299.9 ± 8.9 g
- Cumulative food intake Day 1-14 (ZDF diabetic rats; [4]): 572.5 ± 15.5 g
- Cumulative food intake Day 1-21 (ZDF diabetic rats; [4]): 817.7 ± 22.1 g
- Cumulative food intake Day 1 (ZDF diabetic rats; [5]): 34.2 g
- Cumulative food intake Day 1-7 (ZDF diabetic rats; [5]): 273.3 ± 20.4** g
- Cumulative food intake Day 1-14 (ZDF diabetic rats; [5]): 528.9 ± 36.0** g
- Cumulative food intake Day 1-21 (ZDF diabetic rats; [5]): 768.2 g
- OGTT blood glucose levels (ZDF diabetic rats; ZDF rats, 5 mg/kg twice daily for 21 days): significant lowering
- Blood cholesterol levels (ZDF diabetic rats; ZDF rats, 1 and 5 mg/kg twice daily, vs controls): significantly lowered
- Cholesterol (ZDF diabetic rats; [6]): 3.10 ± 0.12* mmol/l
- Insulin (ZDF diabetic rats; [6]): 267.69 ± 40.69 pmol/L
- Leptin (ZDF diabetic rats; [6]): 13297 ± 921 pg/mL
- Cholesterol (ZDF diabetic rats; [7]): 2.91 ± 0.12** mmol/l
- Insulin (ZDF diabetic rats; [7]): 271.84 ± 34.00 pmol/L
- Leptin (ZDF diabetic rats; [7]): 16560 ± 4843 pg/mL
- Food intake in rats (Wistar rats [2]): significantly reduced
- IPGTT area under the curve through 180 min [3]: substantially lower
- IPGTT blood glucose levels [3]: lower
